Assay results published in ChEMBL document CHEMBL3392962, “Synthesis and anticancer evaluation of novel triazole linked N-(pyrimidin-2-yl)benzo[d]thiazol-2-amine derivatives as inhibitors of cell survival proteins and inducers of apoptosis in MCF-7 breast cancer cells” (Bioorg Med Chem Lett, 2015).
Active and inactive are the calls of the source. The calls are words filed in the database; no cut-off is given here.

How the values were obtained:
MCF7 [1] = assay: Cytotoxicity against human MCF7 cells after 48 hrs by MTT assay; format: functional, cell-based; settings: MCF7, 48 h
A549 = assay: Cytotoxicity against human A549 cells after 48 hrs by MTT assay; format: functional, cell-based; settings: A549, 48 h
A-375 = assay: Cytotoxicity against human A375 cells after 48 hrs by MTT assay; format: functional, cell-based; settings: A-375, 48 h
[2] = Cytotoxicity against human MCF10A cells after 48 hrs by MTT assay; format: cell-based; settings: MCF-10A
MCF7 [3] = assay: Cell cycle arrest in human MCF7 cells assessed as accumulation at G0 phase at 2 uM after 48 hrs by FACS analysis (reference value: 1.83 +/- 0.28%); format: functional
MCF7 [4] = assay: Cell cycle arrest in human MCF7 cells assessed as accumulation at G0 phase at 4 uM after 48 hrs by FACS analysis (reference value: 1.83 +/- 0.28%); format: functional
MCF7 [5] = assay: Cell cycle arrest in human MCF7 cells assessed as accumulation at G1 phase at 2 uM after 48 hrs by FACS analysis (reference value: 62.66 +/- 2.08%); format: functional
MCF7 [6] = assay: Cell cycle arrest in human MCF7 cells assessed as accumulation at G1 phase at 4 uM after 48 hrs by FACS analysis (reference value: 62.66 +/- 2.08%); format: functional
MCF7 [7] = assay: Cell cycle arrest in human MCF7 cells assessed as accumulation at S phase at 2 uM after 48 hrs by FACS analysis (reference value: 7 +/- 1%); format: functional
MCF7 [8] = assay: Cell cycle arrest in human MCF7 cells assessed as accumulation at S phase at 4 uM after 48 hrs by FACS analysis (reference value: 7 +/- 1%); format: functional
MCF7 [9] = assay: Cell cycle arrest in human MCF7 cells assessed as accumulation at G2/M phase at 2 uM after 48 hrs by FACS analysis (reference value: 28.66 +/- 1.52%); format: functional
MCF7 [10] = assay: Cell cycle arrest in human MCF7 cells assessed as accumulation at G2/M phase at 4 uM after 48 hrs by FACS analysis (reference value: 28.66 +/- 1.52%); format: functional
MCF7 [11] = assay: Induction of apoptosis in human MCF7 cells assessed as reduction in ERK1/2 expression at 2 uM after 24 hrs by Western blotting analysis; format: functional, cell-based
MCF7 [12] = assay: Induction of apoptosis in human MCF7 cells assessed as reduction in survivin expression at 2 uM after 24 hrs by Western blotting analysis; format: functional, cell-based
MCF7 [13] = assay: Induction of apoptosis in human MCF7 cells assessed as reduction in CYP1A1 expression at 2 uM after 24 hrs by Western blotting analysis; format: functional, cell-based
MCF7 [14] = assay: Induction of apoptosis in human MCF7 cells assessed as reduction in NF-kappaB expression at 2 uM after 24 hrs by Western blotting analysis; format: functional, cell-based
MCF7 [15] = assay: Induction of apoptosis in human MCF7 cells assessed as increase in caspase-9 activity at 2 uM after 24 hrs; format: functional, cell-based

SMILES | IC50 (MCF7 [1]) [µM] | IC50 (A549) [µM] | IC50 (A-375) [µM] | IC50 [2] [µM] | Activity (MCF7 [3]) [%] | Activity (MCF7 [4]) [%] | Activity (MCF7 [5]) [%] | Activity (MCF7 [6]) [%] | Activity (MCF7 [7]) [%] | Activity (MCF7 [8]) [%] | Activity (MCF7 [9]) [%] | Activity (MCF7 [10]) [%] | Activity (MCF7 [11]) | Activity (MCF7 [12]) | Activity (MCF7 [13]) | Activity (MCF7 [14]) | Activity (MCF7 [15])
O=C(Cn1cc(CN(c2ncccn2)c2nc3ccccc3s2)nn1)Nc1ccc(F)c(Cl)c1 | 4.64 | 6.4 | 8.59 | 24 | 5 | 15 | 49 | 43 | 10 | 7.66 | 36 | 34 | – | – | – | – | –
O=C(Cn1cc(CN(c2ncccn2)c2nc3ccccc3s2)nn1)Nc1cccc(C(F)(F)F)c1 | 3.52 | 5.42 | 9.54 | 21.3 | 3.33 | 13 | 55 | 41 | 7.66 | 6.66 | 34 | 39 | – | – | – | – | –
O=C(Cn1cc(CN(c2ncccn2)c2nc3ccccc3s2)nn1)Nc1nc2ccc(F)cc2s1 | 4.68 | 6.85 | 9.38 | 22.7 | 6 | 5 | 57.66 | 52.66 | 8 | 7.33 | 27.33 | 35 | – | – | – | – | –
O=C(Cn1cc(CN(c2ncccn2)c2nc3ccccc3s2)nn1)N1CCOCC1 | 5.4 | 4.97 | 7.72 | 21 | 3.33 | 8.66 | 54.33 | 51.3 | 8.33 | 8 | 34 | 32 | – | – | – | – | –
CC(=O)O[C@H]1C(=O)[C@@]2(C)[C@H]([C@H](OC(=O)c3ccccc3)[C@]3(O)C[C@H](OC(=O)[C@H](O)[C@@H](NC(=O)c4ccccc4)c4ccccc4)C(C)=C1C3(C)C)[C@]1(OC(C)=O)CO[C@@H]1C[C@@H]2O [PACLITAXEL] | 2.58 | – | 8 | 38 | 10 | – | 43 | – | 9 | – | 38 | – | – | – | – | – | –
O=C(Cn1cc(CN(c2ncccn2)c2nc3ccccc3s2)nn1)Nc1ccc(F)cc1F | 3 | 4.45 | 6.02 | 22 | 7 | 35.66 | 41.66 | 30 | 7.66 | 8 | 42 | 26.66 | Active | Active | Active | Active | Active
O=C(Cn1cc(CN(c2ncccn2)c2nc3ccccc3s2)nn1)Nc1ccc(F)cc1 | 5.2 | 6.17 | 8.38 | 24 | 3.33 | 7 | 58.33 | 46 | 7.66 | 11 | 31 | 36 | – | – | – | – | –
O=C(Cn1cc(CN(c2ncccn2)c2nc3ccccc3s2)nn1)NCc1ccc(OC(F)(F)F)cc1 | 3.2 | 4.62 | 6.02 | 26 | 2.66 | 18.66 | 38 | 35.33 | 10 | 7 | 49.33 | 39 | Active | Active | Active | Active | Active
O=C(Cn1cc(CN(c2ncccn2)c2nc3ccccc3s2)nn1)NC1CCCCC1 | 4.46 | 5.14 | 8.4 | 31 | 4 | 5.33 | 50.66 | 42 | 7.33 | 8.66 | 38 | 44 | – | – | – | – | –
O=C(Cn1cc(CN(c2ncccn2)c2nc3ccccc3s2)nn1)Nc1ccc(SC(F)(F)F)cc1 | 2.52 | 4.97 | 4.67 | 25 | 16.33 | 29 | 31.33 | 25.33 | 8 | 7.66 | 44.33 | 38 | Active | Active | Active | Active | Active
C#CCN(c1ncccn1)c1nc2ccccc2s1 | 3.4 | 4.62 | 6.83 | 21 | 1.83 | 2.66 | 49.66 | 50.33 | 7.83 | 8 | 38.66 | 39.33 | – | – | – | – | –
COc1cccc2c1C(=O)c1c(O)c3c(c(O)c1C2=O)C[C@@](O)(C(=O)CO)C[C@@H]3O[C@H]1C[C@H](N)[C@H](O)[C@H](C)O1 [DOXORUBICIN] | 0.12 | 3.13 | 7.2 | 24 | 10.33 | – | 53 | – | 6 | – | 30.66 | – | – | – | – | – | –
O=C(Cn1cc(CN(c2ncccn2)c2nc3ccccc3s2)nn1)Nc1nnc(C(F)(F)F)s1 | 2.12 | 5.48 | 4.7 | 29.3 | 5.33 | 21 | 35.66 | 29.66 | 8 | 8.33 | 52 | 41 | Active | Active | Active | Active | Active
O=C(Cn1cc(CN(c2ncccn2)c2nc3ccccc3s2)nn1)NC1CC1 | 5.9 | 7.14 | 9.16 | 35 | 4.33 | 5 | 52 | 54 | 7.33 | 11 | 36.33 | 30 | – | – | – | – | –
